Here are results for 17 compounds from PubChem BioAssay (NCI).

Some test systems named below: KM20L2 colon; HCT-116 colon; SF-268 CNS; SNB-78 CNS; MDA-MB-231 breast; PC-3 prostate; DMS 273 small cell lung; HOP-18 NSCLC; XF 498 CNS.
Holding throughout (assay): inhibition of tumour cell growth, NCI panel, 48 h

Where “and” joins values, the source holds several entries; their conditions need not be identical. Equal values may be shown once.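 Where inhibition never reached the appropriate level, the endpoint shown equals the highest concentration tested. Otherwise, values were interpolated linearly from a five-concentration, 48-hour dose response in 96-well plates. Abbreviation: GI50, concentration required for 50% inhibition of growth. The concentration for full growth arrest is given as TGI.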

With `Cc1ccc(NC(=O)CCC/C(CC(=O)c2ccc(Br)cc2)=N/NC(=O)CC#N)cc1`, the TGI in the experiment with KM20L2 colon, with HCT-116 colon, in the experiment with SF-268 CNS and in the experiment with SNB-78 CNS was above 100 µM each time.
On to `O=[N+]([O-])c1ccc(N=Nc2c(O)ccc3ccccc23)cc1`, for which the TGI in the experiment on HCT-116 colon, in the experiment with SF-268 CNS, with MDA-MB-231 breast and in the experiment on PC-3 prostate was above 100 µM each time. Also, the GI50 in the experiment on SF-268 CNS is 35.9 µM and > 100 µM.
Consider `COc1ccc(-c2ccc(/C=N/n3c(COc4ccc(Cl)cc4Cl)nn(CN4CCN(C)CC4)c3=S)o2)c([N+](=O)[O-])c1`, for which the GI50 is 16 µM with HCT-116 colon, 24.8 µM in the experiment on SF-268 CNS, 28.9 µM in the experiment with MDA-MB-231 breast and 17.6 µM in the experiment with PC-3 prostate. Also, the TGI with HCT-116 colon is 29.5 µM; with SF-268 CNS, above 100 µM; in the experiment on MDA-MB-231 breast, above 100 µM; in the experiment with PC-3 prostate, 76.8 µM.
Consider `NC1CCCCC1N.O=S(=O)([O-])CCCN1CCOCC1.O=S(=O)([O-])CCCN1CCOCC1.[Pt+4]`, for which the GI50 was 5.48 µM with KM20L2 colon; 4.87 µM in the experiment with DMS 273 small cell lung; 4.2 µM in the experiment with HCT-116 colon; 9.92 µM in the experiment on SF-268 CNS; 16 µM with HOP-18 NSCLC; above 100 µM in the experiment with SNB-78 CNS. Besides, the TGI with KM20L2 colon is above 100 µM; in the experiment on DMS 273 small cell lung, above 100 µM; in the experiment with HCT-116 colon, above 100 µM; in the experiment with SF-268 CNS it was above 100 µM; in the experiment on HOP-18 NSCLC it was above 89.2 µM; in the experiment with SNB-78 CNS it was above 100 µM.
For the compound `Cc1nc2cc(N)c(F)cc2[nH]1`, the TGI in the experiment on DMS 273 small cell lung, in the experiment on SF-268 CNS, in the experiment with SNB-78 CNS and in the experiment with XF 498 CNS was above 100 µM in each case.
In the case of `Cc1cc(I)cc(CN(C)CCN2CCCC2)c1O`, the GI50 was 18.3 µM in the experiment with HCT-116 colon, 32.4 µM in the experiment with SF-268 CNS, 22 µM with MDA-MB-231 breast and 28.2 µM in the experiment with PC-3 prostate. The TGI in the experiment on HCT-116 colon was above 88.1 µM; in the experiment on SF-268 CNS, above 88.2 µM; with MDA-MB-231 breast it was 67.3 µM; with PC-3 prostate, above 100 µM.
Turning to `Cc1ccc(C(=O)C(Cl)C(Cl)c2ccc(C)cc2)cc1` (centres undefined), the TGI in the experiment on HCT-116 colon worked out at 4 µM; in the experiment with SF-268 CNS it was 21.2 µM; in the experiment with MDA-MB-231 breast, 16.1 µM; in the experiment with PC-3 prostate, 18.4 µM.
As for `C=C[C@H]1CCC/C=C/[C@@H]2C[C@H](O)C[C@H]2[C@H](O)/C=C/C(=O)O1`, the GI50 in the experiment with HCT-116 colon is 0.0238 µM; in the experiment with SF-268 CNS it was 0.038 µM; in the experiment with MDA-MB-231 breast, 0.0201 µM; in the experiment on PC-3 prostate, 0.0458 µM. Moreover, the TGI in the experiment with HCT-116 colon is 0.0576 µM; with SF-268 CNS, above 100 µM; with MDA-MB-231 breast, 0.0403 µM; in the experiment on PC-3 prostate, above 100 µM.
As for `COc1ccc(CNc2c3ccccc3nc3ccc(OC)cc23)cc1`, the GI50 in the experiment with HCT-116 colon is 2.55 µM; in the experiment with SF-268 CNS, 3.75 µM; with MDA-MB-231 breast it was 1.9 µM; with PC-3 prostate, 2.8 µM. For the same compound, the TGI in the experiment with HCT-116 colon amounted to 11.6 µM; in the experiment with SF-268 CNS it was 15.2 µM; in the experiment with MDA-MB-231 breast, 4.69 µM; in the experiment with PC-3 prostate it was 11.8 µM.
For the compound `CCOC(=O)C1=C(Nc2ccc(Cl)cc2Cl)OC/C1=N\NS(=O)(=O)c1ccc(C)cc1`, the TGI in the experiment on KM20L2 colon, in the experiment on DMS 273 small cell lung, in the experiment with HCT-116 colon, with SF-268 CNS, in the experiment with HOP-18 NSCLC and in the experiment with SNB-78 CNS was above 100 µM in each case.
As to `NC(=O)c1ccc2c(-c3ccnc(NCCCO)n3)c(-c3ccc(F)cc3)nn2c1`, the GI50 in the experiment on HCT-116 colon was above 25 µM; in the experiment with SF-268 CNS it was above 22.2 µM; with MDA-MB-231 breast, above 25 µM; in the experiment on PC-3 prostate, above 25 µM. The TGI in the experiment with HCT-116 colon, in the experiment on SF-268 CNS, in the experiment with MDA-MB-231 breast and in the experiment with PC-3 prostate was above 25 µM in each case.
Consider `Cc1cc(N2CCN(c3ccnc4cc(Cl)ccc34)CC2)nc(NC2CCCCC2)n1`, for which the GI50 in the experiment with HCT-116 colon was 1.32 µM; with SF-268 CNS, 2.34 µM; in the experiment with MDA-MB-231 breast, 2 µM; with PC-3 prostate it was 1.47 µM. Also, the TGI in the experiment with HCT-116 colon is 2.91 µM; in the experiment with SF-268 CNS, 5.41 µM; with MDA-MB-231 breast, 4.09 µM; in the experiment with PC-3 prostate, 3.02 µM.
Turning to `Cc1ccc(-c2nc(N)nc3c2nnn3Cc2cccc(CO[C@H]3CCOC3)n2)o1`, the GI50 in the experiment with HCT-116 colon, with SF-268 CNS, with MDA-MB-231 breast and in the experiment with PC-3 prostate was above 100 µM in each case. For the same compound, the TGI in the experiment on HCT-116 colon, in the experiment with SF-268 CNS, in the experiment on MDA-MB-231 breast and with PC-3 prostate was above 100 µM throughout.
As for `CC[Si](CC)(CC)OC[C@]1([C@@H]2COC(C)(C)O2)CC=CC(=O)O1`, the GI50 in the experiment with HCT-116 colon is 39.5 µM; in the experiment with SF-268 CNS it was 41.5 µM; with MDA-MB-231 breast, 51.1 µM; in the experiment with PC-3 prostate, 41.5 µM. Further, the TGI in the experiment with HCT-116 colon, with SF-268 CNS, with MDA-MB-231 breast and with PC-3 prostate was above 100 µM in each case.
Consider `O=C(N/N=C/c1ccccc1Cl)c1ccccc1Nc1ccnc(C(F)(F)F)c1`, for which the GI50 was 0.637 µM in the experiment on HCT-116 colon, 1.8 µM in the experiment with SF-268 CNS, 1.93 µM with MDA-MB-231 breast and 1.83 µM in the experiment with PC-3 prostate. For the same compound, the TGI worked out at 3.27 µM in the experiment on HCT-116 colon, 10.5 µM in the experiment with SF-268 CNS, 6.94 µM with MDA-MB-231 breast and 9.6 µM with PC-3 prostate.
For `CN1CCCCCC(=N\O)/C(=N/O)CCCCC1`, the TGI in the experiment on HCT-116 colon, with SF-268 CNS, with MDA-MB-231 breast and in the experiment on PC-3 prostate was above 100 µM in each case.
For `O=C([O][Hg][CH2]C1COCC([CH2][Hg][O]C(=O)c2ccccc2)O1)c1ccccc1` (centres undefined), the GI50 is 1.56 µM in the experiment on HCT-116 colon, 16.6 µM in the experiment with SF-268 CNS, 19.4 µM in the experiment on MDA-MB-231 breast and 15.9 µM in the experiment on PC-3 prostate. Also, the TGI was 2.93 µM with HCT-116 colon, 30.7 µM with SF-268 CNS, 45.6 µM in the experiment with MDA-MB-231 breast and 32.4 µM in the experiment with PC-3 prostate.
